{"source": "paper PMC5063576", "about": "“High Potency VEGFRs/MET/FMS Triple Blockade by TAS-115 Concomitantly Suppresses Tumor Progression and Bone Destruction in Tumor-Induced Bone Disease Model with Lung Carcinoma Cells” (PLoS ONE, 2016)", "key": {"[1]": {"tested_on": "A549-Luc-BM1 cells", "experiment": "Proliferation of A549-Luc-BM1 cells (CellTiter-Glo)", "format": "cell-based", "conditions": "Homo sapiens, 72 hr post drug addition, read-out: 50% growth inhibitory concentration (GI50) for A549-Luc-BM1 cells", "description": "Supplementary file pone.0164830.s002.tif: S2 Fig The effect of TAS-115 on the proliferation of A549-Luc-BM1 cells. A549-Luc-BM1 cells were seeded on 96 well plates at a density of 10^3 cells/well in RPMI1640 containing 10% FBS. […] At 72 hr post drug addition, cell viability was determined using CellTiter-Glo^TM. The 50% growth inhibition (GI50) values were determined using SAS version 9.2. (TIF) Click here for additional data file."}, "[2]": {"tested_on": "FMS phosphorylation in human acute monocytic THP-1 leukemia cells", "experiment": "M-CSF-induced FMS phosphorylation in THP-1 cells (immunoblotting)", "format": "cell-based", "conditions": "2 h, 120 min compound incubation, 30 ng/mL M-CSF, read-out: cellular IC50 against M-CSF-induced FMS phosphorylation", "description": "Supplementary file pone.0164830.s005.tif: S5 Fig The inhibition of the FMS signaling pathway in human acute monocytic leukemia THP-1 cells by TAS-115. […] After incubation with the compounds for 120 min, THP-1 cells were stimulated with 30 ng/mL of M-CSF and lysed at 1 min post M-CSF stimulation. Specific proteins in the cell lysates were detected using immune blotting and were quantified using Multi Gauge Ver 3.2 (FUJIFILM). IC50 values were calculated using Xlfit 5.3.0.8 (CTC Life Science Corporation, Tokyo, Japan). (TIF) Click here for additional data file."}, "[3]": {"tested_on": "A549-Luc-BM1 cells in the mouse tibia", "experiment": "Tumor-induced bone disease model, intra-tibial A549-Luc-BM1, bioluminescence imaging", "format": "in vivo, BALB/c nude mice", "conditions": "day 28; 4 weeks; oral once daily TAS-115 200 mg/kg, cabozantinib 15 mg/kg, sunitinib 40 mg/kg, crizotinib 100 mg/kg; ZA 0.2 mg/kg s.c. twice weekly", "description": "Tumor growth in the tibiae was monitored by bioluminescence imaging using an IVIS Lumina II Imaging System (PerkinElmer, MA). […] Images were analyzed using the Living Image 3.1 software (PerkinElmer). Total photon flux (TP) was calculated by summation of the photon flux of ventral and right lateral images. One week post tumor implantation, 8–9 animals were allocated to each experimental group by a stratified randomization method with SAS version 9.2 (SAS Institute Japan, Tokyo, Japan) using TP as an allocation parameter, following which drug treatment was then started. […] The doses of each drug were selected based on the maximum tolerated dose (MTD) in in-house studies (data not shown). […] Zoledronic acid (ZA) was subcutaneously injected twice weekly for 4 weeks at a dose of 0.2 mg/kg, which was a previously reported efficacious dose. The allocation day was set as day 0, and drug administration was initiated from day 1. As an indicator of changes in tumor growth during the dosing period, relative total photon flux (RTP), was calculated according to the following formula: RTPday n = (TP on each measurement day) / (TPday 0) × 100. TPday 0 is the TP on the allocation day."}, "[4]": {"experiment": "Body weight change in the bone disease model", "format": "in vivo, BALB/c nude mice", "conditions": "4 weeks of treatment; TAS-115 200 mg/kg, crizotinib 100 mg/kg, sunitinib 40 mg/kg with crizotinib 100 mg/kg, oral once daily", "description": "Changes in body weight (BW) during the dosing period were determined using body weight change (BWC; %) as an indicator, which was calculated using the following formula: BWC; % = 100 × ((BW on each measurement day)–(BWday 0)) / (BWday 0). BWday 0 is the BW on the allocation day. The schedule for the in vivo study is depicted in the Supporting Information (S1 Fig)."}, "[5]": {"tested_on": "A549-Luc-BM1-implanted tibia", "experiment": "Bone morphometrical analyses by micro-CT", "format": "in vivo, BALB/c nude mice", "conditions": "micro-CT after 4 weeks dosing; TAS-115 200, cabozantinib 15, sunitinib 40, crizotinib 100 mg/kg oral; vs control", "description": "On day 29, the mice were euthanized by cervical dislocation under isoflurane anesthesia, and subsequently the A549-Luc-BM1-implanted tibia was removed and was fixed in 4% paraformaldehyde solution. Micro-CT imaging was performed by using Rm_CT2 (Rigaku corporation, Tokyo, Japan) with the following parameters: 90 kV, 160 μA, 3 min exposure, 10 mm field of view (20 μm voxel size). After scanning, 3D reconstruction was performed to produce a series of cross-sectional images by using specific software (3D Viewer Version 3.00.01, Rigaku corporation). In addition, bone mineral density (BMD) and 3D morphometrical primary parameters, including total volume (TV) and bone volume (BV), were calculated by using bone microstructure software (TRI/3D-BON-FCS64, Ratoc System Engineering, Tokyo, Japan). Volumetric BMD (vBMD), which has been reported to be a good index of osteoporosis, was calculated from primary parameters using the following formula: vBMD = BMD × BV / TV."}, "[6]": {"tested_on": "M-CSF dependent bone marrow macrophages (MDBMs)", "experiment": "In vitro osteoclast differentiation assay (TRAP activity)", "format": "cell-based, mouse", "conditions": "MDBMs with hM-CSF and rhsRANKL for 4 days", "description": "To prepare macrophage colony-stimulating factor (M-CSF) dependent bone marrow macrophages (MDBMs), bone marrow cells were obtained from the femurs of male BALB/c mice (CLEA Japan) and adherent cells were cultured with human M-CSF (hM-CSF; 10000 U/mL) for 6 days. MDBMs were collected and cultured with hM-CSF (10000 U/mL) and recombinant human soluble RANKL (rhsRANKL)-GST (5 nM) for 4 days (25000 cells/well in a 96 well flat plate) for induction of differentiation into osteoclasts. Test compounds were then added to the culture media at the indicated concentration. TRAP activities were measured using the commercially available TRACP and ALP Assay Kit (TAKARA BIO INC)."}, "[7]": {"tested_on": "MET phosphorylation in MDBMs", "experiment": "In vitro MDBM signaling, rhHGF-induced MET phosphorylation", "format": "cell-based, mouse", "conditions": "rhHGF 100 ng/mL 10 min, Western blotting", "description": "For analysis of the expression and phosphorylation levels of FMS, MET and VEGFR2, MDBMs were cultured with hM-CSF (20000 U/mL) for 4 days (400000 cells/dish in Suspension Culture Dishes (Corning Inc., NY). The phosphorylation levels of FMS and downstream signaling molecules were then analyzed in these MDBMs following incubation for 1 hr with test compounds at the indicated concentration. The phosphorylation of MET or VEGFR2 was analyzed in these MDBMs following stimulation with rhHGF (100 ng/mL, 10 min) or rhVEGF (100 ng/mL, 5 min), respectively. After incubation, the MDBMs were harvested, the cells were lysed and target signaling proteins were detected by immunoblotting. For analysis of VEGFR2 and its phosphorylated form, the lysate was immunoprecipiated with an anti-VEGFR antibody prior to immunoblotting."}}, "data": [{"compound": "CNC(=O)c1cc2c(Oc3ccc(NC(=S)NC(=O)Cc4ccccc4)cc3F)ccnc2cc1OC", "note": "[TAS-115, 4-[2-fluoro-4-[[[(2-phenylacetyl)amino]thioxomethyl]amino]-phenoxy] -7-methoxy-N-methyl-6-quinolinecarboxamide]", "values": [{"measurement": "GI50", "setting": "[1]", "result": 11.2, "unit": "µM"}, {"measurement": "IC50", "setting": "[2]", "result": 12, "unit": "nM"}, {"measurement": "tumor growth inhibition percentage (TGI)", "setting": "[3]", "result": 85, "unit": "%"}, {"measurement": "effect on body weight", "setting": "[4]", "result": "did not cause body weight loss"}, {"measurement": "A549-Luc-BM1-induced changes in bone parameters (BV, TV, BMD, vBMD)", "setting": "[5]", "result": "significantly suppressed all of the changes"}, {"measurement": "concentration that potently inhibited / markedly affected RANKL and M-CSF-induced mouse osteoclast formation", "setting": "[6]", "result": 0.3, "unit": "µM"}, {"measurement": "concentration inhibiting the phosphorylation of MET", "setting": "[7]", "result": "greater than 0.03 μM"}]}]}
